Tested on: CNV
Experiment: Laser photocoagulation-induced CNV in rats (FP/FFA, fluorescein leakage grading)
Type: in vivo, Brown Norway (BN) rats
Details: for Mean fluorescein leakage score vs model group / Ratio of grade 3 light spots vs model group: after treatment
Experimental: Specific-pathogen-free (SPF) grade Brown Norway (BN) rats, half male and half female, were treated with fundus laser photocoagulation, the date of which was counted as D0. At D8, 32 rats with similar areas of fluorescence leakage were selected, separated to 8 groups, with each group including 4 rats (half male and half female): • Group 1 is a model group without any treatment. • Group 2 is a positive control group, in which Conbercept was injected into the vitreous cavity of the rats' eyes at the dosage of 50 μg/eye and […]. • In group 3, both eyes of the rats were administered with nintedanib ethanesulfonate at the dosage of 125 μg/eye and 6 times per day from day 8 and day 15 (D8˜D15). • In group 4, both eyes of the rats were administered with nintedanib ethanesulfonate at the dosage of 25 μg/eye and 6 times per day from day 8 and day 15 (D8˜D15). • In group 5, both eyes of the rats were administered with nintedanib ethanesulfonate at the dosage of 5 μg/eye and 6 times per day from day 8 and day 15 (D8˜D15). • In group 6, both eyes of the rats were administered with nintedanib ethanesulfonate at the dosage of 2.5 μg/eye and 6 times per day from day 8 and day 15 (D8˜D15). • In group 7, both eyes of the rats were administered with nintedanib ethanesulfonate at the dosage of 0.5 μg/eye and 6 times per day from day 8 and day 15 (D8 D15). • In […], both eyes of the rats were administered with nintedanib ethanesulfonate at the dosage of 0.1 μg/eye and 6 times per day from day 8 and day 15 (D8 D15).
All rats were tested with fundus photography (“FP”) and fundus fluorescein angiography (“FFA”) one day before administration and 8 days after administration. The degree of CNV was graded according to the degree of fluorescence leakage. The results were used to evaluate the effect of nintedanib ethanesulfonate on rat CNV, the results of which are shown in FIG. 2.
The ratio is calculate by comparing the early-phase and last-phase fluorescein angiograms. The fluorescence leakage of the light spots was graded as follows: grade 0 (no leakage); grade 1 (slight leakage, leakage area is 1%-50% of the light spot size); grade 2 (moderate leakage, leakage area is 50%-100% of the light spot size); grade 3 (strong leakage, leakage area is larger than the light spot size). The ratios of light spots for certain grade were calculated as follows: Ratio of light spot (%)=(the number of light spot at certain grade÷the sum of four kinds of light spots)×100.
The mean fluorescein leakage score is calculated as follows: Mean fluorescein leakage score=[(number of grade 0 light spot×0)+(number of grade 1 light spot×1)+(number of grade 2 light spot×2)+(number of grade 3 light spot×3)]÷the sum of four kinds of light spots

[1] = positive control group, 50 μg/eye into the vitreous cavity
[2] = groups 3-6 (125, 25, 5, 2.5 μg/eye)

Molecule	Mean fluorescein leakage score vs model group [1]	Ratio of grade 3 light spots vs model group [1]	Ratio of grade 1 light spots vs positive control group (all groups)	Ratios of light spots, mean fluorescein leakage score and development of CNV (eye drops at 125, 25, 5, 2.5, 0.5 μg/eye)	Ratio of grade 1 light spots vs positive control group (fifth group (5 μg/eye), p≤0.05)	Leakage vs positive control group (group 5 (5 μg/eye), p≤0.05)	Ratio of grade 3 light spots vs positive control group [2]	Mean fluorescein leakage score vs model group [2]	Ratio of grade 3 light spots vs model group [2]	Ratio of grade 1 light spots vs model group (groups 3-6 (125, 25, 5, 2.5 μg/eye), p≤0.05)	Adverse reactions (groups 3 and 4 (125 and 25 μg/eye, 6 times per day, D8-D15), some of the animals)	Inhibition of CNV in rats (groups 4-6 (25, 5, 2.5 μg/eye), 1 week after photocoagulation)	Mean fluorescein leakage score (groups 7 and 8 (0.5 and 0.1 μg/eye))	Adverse reactions (other groups (5, 2.5, 0.5, 0.1 μg/eye, 6 times per day, D8-D15))	Ratio of the level 0 and level 2 light spot vs positive control group (other groups, p>0.05)	Inhibition of leakage vs positive control group (printed: first group)	Leakage caused by CNV (rat, in vivo)
Conbercept: Monoclonal antibody or fusion protein targeting VEGF, developed by a Chinese company and launched in 2013; positive control	significantly decreased	significantly decreased	–	–	–	–	–	–	–	–	–	–	–	–	–	–	–
COC(=O)c1ccc2c(c1)NC(=O)/C2=C(\Nc1ccc(N(C)C(=O)CN2CCN(C)CC2)cc1)c1ccccc1 [nintedanib ethanesulfonate]	–	–	increased	can inhibit	significantly increased	significantly decreased	lower	significantly decreased	significantly decreased	increased	corneal opacity	significantly inhibited the CNV	no statistically significant difference	did not experience any significantly adverse reactions	no significant difference	slightly stronger	can inhibit the leakage caused by CNV

From patent publication US10772885B2, “Composition for treating ocular diseases and methods of usage and making” (REYOUNG (SUZHOU) BIOLOGY SCIENCE & TECHNOLOGY CO., LTD., priority 2016, dated 2020)
